What was measured:
DCAF15/RBM39 = DCAF15/RBM39 (Homo sapiens, UniProt Q14498+Q66K64); test: AlphaLISA compound-induced DCAF15-RBM39 ternary complex formation; assay type: binding; conditions: His-tagged DCAF15 complex and biotin-carrying RBM39
Experimental: Example 6: Quantitative Evaluation of Compound-Induced Ternary Complex Formation Using Amplified Luminescent Proximity Homogeneous Assay
Compound-induced DCAF15-RBM39 ternary complex formation was monitored using AlphaLISA® assays (Perkin Elmer, Waltham, MA). Test compounds were first collected in a 384-well microplate (cat. #781280, Grenier Bio-One, Monroe, NC) as 2 mM stocks in 100% dimethyl sulfoxide (DMSO). These stocks were then serially diluted in DMSO by 3-fold into a new plate (cat. #781280, Grenier Bio-One, Monroe, NC) using a Mosquito HTS dispenser (mosquito@ HTS, SPT Labtech, Boston, MA). 0.2 ul of these diluted stocks were then dispensed into a 384-well Optiplate (cat. #6007290, Perkin Elmer, Waltham, MA) in duplicate wells, to assemble the final assay plate consisting of duplicated dose ranges. Separately, a protein mixture consisting of His-tagged DCAF15 complex and biotin-carrying RBM39, each at 408 nM (2.04×), was prepared in 50 mM HEPES, pH 7.5, 100 mM NaCl, 2 mM MgCl2, 0.1% BSA, 2 mM TCEP, 0.05% Tween-20 (dilution buffer). 9.8 ul of this protein mixture was then mixed with the compounds in the assay plate and incubated for one hour at room temperature. Reaction mixtures with no compounds added were included as negative controls, while a His-tagged and biotinylated GST protein was included to track general assay performance. Nickel Chelate AlphaLISA Acceptor beads (cat. #AL108M, Perkin Elmer, MA) and AlphaScreen Streptavidin Donor beads (cat. #6760002, Perkin Elmer, Waltham, MA) were prepared separately in the dilution buffer as 4× stocks (80 ug/ml). The beads were then added to the assay plate sequentially with incubation at room temperature for 1-2 hours after each addition. Signals were recorded using EnVision 2104 Multilabel Plate Reader (Perkin Elmer, Waltham, MA) and titration curves were generated in GraphPad Prism (7.00, GraphPad, La Jolla, CA).

DCAF15 = DCAF15 (Homo sapiens, UniProt Q66K64); test: HTRF competition assay, binary interaction between compounds and DCAF15; assay type: binding; conditions: competition with Alexa Fluor 647 tracer, His-tagged DCAF15 complex
Experimental: Example 7: Measurement of Binary Interaction Between Compounds And DCAF15 Using Homogeneous Time Resolved Fluorescence (HTRF)
DCAF15 interactions with test compounds were monitored using HTRF competition assays (Cisbio, Bedford, MA). Test compounds were first collected in a 384-well microplate (cat. #781280, Grenier Bio-One, Monroe, NC) as 10 mM stocks in 100% dimethyl sulfoxide (DMSO). A second stock plate (cat. #781280, Grenier Bio-One, Monroe, NC) was prepared through 3-fold serial dilution in DMSO of the afore-mentioned stocks using a Mosquito HTS dispenser (mosquito@ HTS, SPT Labtech, Boston, MA). 0.2 ul of these diluted stocks were then dispensed into a 384-well Optiplate (cat. #6007290, Perkin Elmer, Waltham, MA) in duplicate wells, to assemble the assay plate. The tracer molecule containing an Alexa Fluor 647 probe was prepared in 25 mM HEPES pH 7.5, 100 mM NaCl, 0.1 mg/ml BSA, 0.005% Tween 20, 0.5 mM TCEP (dilution buffer) to 612 nM (2.04×). Separately, His-tagged DCAF15 complex was prepared at 32 nM (4×) in the dilution buffer, and mAb Anti-6His-Eu cryptate Gold (cat. #61H12KLA, Cisbio, Bedford, MA) at 4× dilution in the detection buffer (cat. #61 DB9RDF, Cisbio, Bedford, MA). These two solutions were mixed and incubated for 15 min at room temperature. 9.8 ul of the tracer solution and 10 ul of the DCAF15/mAb Anti-6His-Eu cryptate Gold mixture were added sequentially to each well in the assay plate. Reaction mixtures with no DCAF15 added were included as positive controls. The final mixture was incubated for an hour at room temperature and spun down briefly before data collection at 615 nm and 666 nm using En Vision 2104 Multilabel Plate Reader (Perkin Elmer, Bedford, MA). Binding was estimated based on ratiometric analysis and titration curves were generated in GraphPad Prism (7.00, GraphPad, La Jolla, CA).

SMILES | EC50 (DCAF15/RBM39) [µM] | IC50 (DCAF15) [µM]
O=S(=O)(Nc1ccc(Cl)c2c(Cl)c[nH]c12)c1ccc(OC[C@H]2[C@@H]3CNC[C@@H]32)cc1 [Compound 48] | < 1 | 10 to 100
O=C(OCc1ccccc1)N1C[C@@H]2[C@@H](COc3cccc(S(=O)(=O)Nc4ccc(Cl)c5c(Cl)c[nH]c45)c3)[C@@H]2C1 [Compound 49] | 1 to 10 | > 100
O=C(OCc1ccccc1)N1C[C@@H]2[C@@H](COc3ccc(S(=O)(=O)Nc4ccc(Cl)c5c(Cl)c[nH]c45)cc3)[C@@H]2C1 [Compound 50] | > 100 | > 100
O=S(=O)(Nc1ccc(Cl)c2c(Cl)c[nH]c12)c1cccc(OCc2cccc(OC(F)F)c2)c1 [Compound 53] | 1 to 10 | > 100
O=S(=O)(Nc1ccc(Cl)c2c(Cl)c[nH]c12)c1ccc(OCc2cccc(OC(F)F)c2)cc1 [Compound 54] | 1 to 10 | > 100
NCCc1ccc(COc2cccc(S(=O)(=O)Nc3ccc(Cl)c4c(Cl)c[nH]c34)c2)cc1 [Compound 59] | 1 to 10 | 10 to 100
NCCc1ccc(COc2ccc(S(=O)(=O)Nc3ccc(Cl)c4c(Cl)c[nH]c34)cc2)cc1 [Compound 60] | 1 to 10 | 1 to 10
Cc1nc(-c2ccc(COc3cccc(S(=O)(=O)Nc4ccc(Cl)c5c(Cl)c[nH]c45)c3)cc2)no1 [Compound 63] | 1 to 10 | > 100
Cc1nc(-c2ccc(COc3ccc(S(=O)(=O)Nc4ccc(Cl)c5c(Cl)c[nH]c45)cc3)cc2)no1 [Compound 64] | > 100 | > 100
O=S(=O)(Nc1ccc(Cl)c2c(Cl)c[nH]c12)c1cccc(OCc2ccc3c(c2)CNC3)c1 [Compound 65] | < 1 | > 100
O=S(=O)(Nc1ccc(Cl)c2c(Cl)c[nH]c12)c1ccc(OCc2ccc3c(c2)CNC3)cc1 [Compound 66] | < 1 | 1 to 10
Cn1ncnc1COc1ccc(S(=O)(=O)Nc2ccc(Cl)c3c(Cl)c[nH]c23)cc1 [Compound 67] | < 1 | 1 to 10
Cn1nnc2cc(COc3ccc(S(=O)(=O)Nc4ccc(Cl)c5c(Cl)c[nH]c45)cc3)ccc21 [Compound 68] | < 1 | > 100
CC1(CCOc2cccc(S(=O)(=O)Nc3ccc(Cl)c4c(Cl)c[nH]c34)c2)CCNCC1 [Compound 74] | < 1 | 10 to 100
CC1(CCOc2ccc(S(=O)(=O)Nc3ccc(Cl)c4c(Cl)c[nH]c34)cc2)CCNCC1 [Compound 75] | < 1 | 1 to 10
CS(=O)(=O)c1ccc(CCOc2cccc(S(=O)(=O)Nc3ccc(Cl)c4c(Cl)c[nH]c34)c2)cc1 [Compound 76] | 1 to 10 | > 100
CS(=O)(=O)c1ccc(CCOc2ccc(S(=O)(=O)Nc3ccc(Cl)c4c(Cl)c[nH]c34)cc2)cc1 [Compound 77] | 1 to 10 | > 100
Cn1cc(CCOc2cccc(S(=O)(=O)Nc3ccc(Cl)c4c(Cl)c[nH]c34)c2)c2ccccc21 [Compound 92] | 10 to 100 | > 100
Cn1cc(CCOc2ccc(S(=O)(=O)Nc3ccc(Cl)c4c(Cl)c[nH]c34)cc2)c2ccccc21 [Compound 93] | > 100 | > 100

SMILES | EC50 (DCAF15/RBM39) [µM] | IC50 (DCAF15) [µM]
O=S(=O)(Nc1ccc(Cl)c2c(Cl)c[nH]c12)c1cccc(OCCC[C@@H]2CCCN2)c1 [Compound 96] | < 1 | > 100
O=S(=O)(Nc1ccc(Cl)c2c(Cl)c[nH]c12)c1ccc(OCCC[C@@H]2CCCN2)cc1 [Compound 97] | < 1 | 1 to 10
O=S(=O)(Nc1ccc(Cl)c2c(Cl)c[nH]c12)c1cccc(OCCCC2CCNCC2)c1 [Compound 98] | 1 to 10 | 10 to 100
O=S(=O)(Nc1ccc(Cl)c2c(Cl)c[nH]c12)c1ccc(OCCCC2CCNCC2)cc1 [Compound 99] | < 1 | 1 to 10
CCc1cnc(N2CCC(CCCOc3cccc(S(=O)(=O)Nc4ccc(Cl)c5c(Cl)c[nH]c45)c3)CC2)nc1 [Compound 100] | > 100 | > 100
CN1CCN(CCCOc2cccc(S(=O)(=O)Nc3ccc(Cl)c4c(Cl)c[nH]c34)c2)CC1 [Compound 104] | < 1 | 10 to 100
O=S(=O)(Nc1ccc(Cl)c2c(Cl)c[nH]c12)c1cccc(OCCCN2CC3(COC3)C2)c1 [Compound 108] | < 1 | > 100
O=S(=O)(Nc1ccc(Cl)c2c(Cl)c[nH]c12)c1ccc(OCCCc2ccc3c(c2)OCO3)cc1 [Compound 110] | > 100 | > 100
O=S(=O)(Nc1ccc(Cl)c2c(Cl)c[nH]c12)c1cccc(OCCCc2ccc3c(c2)OCO3)c1 [Compound 111] | > 100 | > 100
O=c1oc2ccccc2n1CCCOc1cccc(S(=O)(=O)Nc2ccc(Cl)c3c(Cl)c[nH]c23)c1 [Compound 112] | 1 to 10 | > 100
O=c1oc2ccccc2n1CCCOc1ccc(S(=O)(=O)Nc2ccc(Cl)c3c(Cl)c[nH]c23)cc1 [Compound 113] | 1 to 10 | > 100
O=S(=O)(Nc1ccc(Cl)c2c(Cl)c[nH]c12)c1cccc(OCCCN2CCCc3ccccc32)c1 [Compound 114] | 1 to 10 | > 100
O=S(=O)(Nc1ccc(Cl)c2c(Cl)c[nH]c12)c1ccc(OCCCCc2ccccn2)cc1 [Compound 140] | 1 to 10 | 1 to 10
CNCCCCCOc1ccc(S(=O)(=O)Nc2ccc(Cl)c3c(Cl)c[nH]c23)cc1 [Compound 144] | < 1 | 1 to 10
CNCCCCCCOc1ccc(S(=O)(=O)Nc2ccc(Cl)c3c(Cl)c[nH]c23)cc1 [Compound 148] | < 1 | 1 to 10
O=C(N[C@H]1CCc2ccccc21)c1ccc(S(=O)(=O)Nc2ccc(Cl)c3c(Cl)c[nH]c23)c(F)c1 [Compound 155] | > 100 | > 100
O=C1CC[C@H](NC(=O)c2cccc(S(=O)(=O)Nc3ccc(Cl)c4c(Cl)c[nH]c34)c2F)CN1 [Compound 156] | < 1 | 1 to 10
O=C1CC[C@H](NC(=O)c2ccc(S(=O)(=O)Nc3ccc(Cl)c4c(Cl)c[nH]c34)c(F)c2)CN1 [Compound 157] | < 1 | < 1
CN1C[C@@H](NC(=O)c2cccc(S(=O)(=O)Nc3ccc(Cl)c4c(Cl)c[nH]c34)c2F)CCC1=O [Compound 158] | < 1 | < 1

From patent publication US20240327351A1, “AMIDE AND ETHER SUBSTITUTED N-(1H-INDOL-7-YL)BENZENESULFONAMIDES AND USES THEREOF” (TRIANA BIOMEDICINES, INC., priority 2021, published 2024)
